Experiment [1] concerns PCP-induced cognitive deficits. Nature of the experiment: Rodent novel object recognition (NOR) assay in phencyclidine-induced cognitive deficits modeling schizophrenia. More on the design: key to time spent exploring novel object (TN) / time spent exploring familiar object (TF): exploration time in seconds. Particulars: PCP-treated rats, 2 h ITI. Type of experiment: in vivo, rat. The source says: Rodent Novel Object Recognition (NOR) Assay in Phencyclidine-Induced Cognitive Deficits Modeling Schizophrenia
The aim of this study was to investigate the ability of the compounds of the invention to improve subchronic PCP-induced impairment in cognition memory using the NOR task in the rat, a paradigm of relevance to cognition in schizophrenia. Adult male Sprague-Dawley rats (250-350 g; Harlan, USA) were used for the experiments Animal were acclimated to the facility for 7 days prior to experimentation. Seven groups of 14 animals per group were used for the experiment. One group of animals received vehicle (0.9% saline twice daily) and the remaining six groups received PCP (2.5 mg/kg, s.c. twice daily) for 7 days, followed by 5-days drug free. On the test day, the animals were allowed to acclimate to the testing room for 30 min prior to initiation of experiments. Experiments were carried out in a white plexiglass chamber, designated as experimental arena. The arena was placed in a dark experimental room that was illuminated by a halogen lamp, providing a dim light to the arena.
Animals were placed in the arena for a 5 minute period to freely explore the test chamber in the absence of objects (habituation). Animals were then returned to their home cage immediately upon completion of habituation for a 120 min period. (1R,3R,5S)-8-Methyl-8-azabicyclo[3.2.1]octan-3-yl 1-(2,2,2-trifluoroethyl)-1H-indole-3-carboxylate (0.1, 1, 10 mg/kg s.c.), or vehicle (veh, saline) was administered 120 min prior to T1 and galantamine (5 mg/kg, i.p.) was administered 30 min prior to T1. Animals were returned to the arena which contained two identical objects (plastic balls) placed at one end of the arena (acquisition, T1), and allowed to explore for a 5 min period. The time spent exploring the two objects was recorded Animals were once again returned to the home cage for a period of 120 min (ITI).
ITI was followed by the retention phase (T2) where one of the objects presented in the first trial was replaced by a novel object and animals were allowed to explore for an additional 5 min period. Again, the time spent exploring the two objects was recorded.
For the retention phase, the differences between the time spent exploring the familiar object and the novel object were examined. All sessions were recorded and scored blindly for the time exploring objects. Exploration is defined as touching the object or directing nose towards object at a distance less that 2 cm. A minimal exploration criterion was used such that only animals with exploration time of greater than 5 seconds per object were included.
Comparisons of all treatment groups were conducted using a one-way ANOVA followed by a Bonferroni's post hoc test for multiple comparisons.

Experiment [2] concerns the target 5HT3a receptor expressed in HEK-293T cells (Homo sapiens (Human), UniProt P46098). As to the kind of experiment: Inhibition of Ca flux activity of 5HT3 in vitro assay. Type of experiment: cell-based. To be noted: calcium flux, 5HT 216 nM, approximate values. The essentials:
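HEK-293T cells transiently transfected with human 5HT3a, loaded 1 hour at 37° C with calcium dye in HBSS/20 mM HEPES, preincubated with compound (10^−7 to 10^−10, half-log) 10 minutes at room temperature.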
Background: A change in cytosolic calcium serves as a functional read-out for many receptors and channels.

Where [3] appears, read: 0.1 mg/kg s.c. (bracket prints 0.01 mg/kg).
Setting [4] is: 1 mg/kg s.c. (bracket prints 0.1 mg/kg).

Sequence of 5HT3a receptor expressed in HEK-293T cells (P46098 24-478): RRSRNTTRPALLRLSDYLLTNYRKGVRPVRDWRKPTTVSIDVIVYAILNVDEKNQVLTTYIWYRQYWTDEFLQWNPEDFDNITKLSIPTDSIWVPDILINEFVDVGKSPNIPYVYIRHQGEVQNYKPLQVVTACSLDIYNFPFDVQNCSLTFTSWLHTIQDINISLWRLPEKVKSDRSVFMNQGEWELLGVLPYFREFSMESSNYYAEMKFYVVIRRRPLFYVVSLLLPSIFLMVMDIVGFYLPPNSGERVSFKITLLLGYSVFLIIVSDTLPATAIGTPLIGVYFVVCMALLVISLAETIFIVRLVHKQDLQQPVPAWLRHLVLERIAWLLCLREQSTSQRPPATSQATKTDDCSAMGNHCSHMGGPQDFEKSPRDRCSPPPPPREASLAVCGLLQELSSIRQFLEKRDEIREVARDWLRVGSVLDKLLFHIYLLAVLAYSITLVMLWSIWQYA

Regarding `CN1[C@@H]2CC[C@H]1C[C@@H](OC(=O)c1cn(CC(F)(F)F)c3ccccc13)C2`, the “time spent exploring familiar object (TF)” value worked out at 12.5±2.152 in experiment [1] (setting [3]), 12.7±1.027 in experiment [1] (setting [4]) and 9.831±1.53 in experiment [1] (10 mg/kg s.c.). In addition, the “time spent exploring novel object (TN)” value is on record as 22.9±3.65 in experiment [1] (setting [3]), 25.3±2.51 in experiment [1] (setting [4]) and 22.8±2.48 in experiment [1] (10 mg/kg s.c.). The “discrimination between familiar and novel objects” value in experiment [1] (0.1 mg/kg s.c.) is “did not demonstrate a statistically significant discrimination”; in experiment [1] (1 mg/kg s.c.) it was “demonstrated a statistically significant discrimination”; in experiment [1] (10 mg/kg s.c.), “demonstrated a statistically significant discrimination”. As to `COc1ccc2c3c1O[C@H]1C[C@@H](O)C=C[C@@]31CCN(C)C2` [Galantamine, galantamine, reference compound], in experiment [1] (galantamine 5 mg/kg i.p.), the “discrimination between familiar and novel objects” value is reported as “statistically significant discrimination”; the “time spent exploring familiar object (TF)” value was 11.19±1.376; the “time spent exploring novel object (TN)” value is given as 22.8±2.2. For the compound “(1R,3R,5S)-8-methyl-8-azabicyclo[3.2.1]octan-3-yl 3,4-dihydro-2H-[1,3]oxazino[3,2-a]indole-10-carboxylate 2,2,2-trifluoroacetate [Example 19]”, the IC50 (in general, the midpoint of a concentration-inhibition curve) in experiment [2] was determined as 7.72 nM. The same measure, in the same setting: under “(1R,5S,7S)-3-Oxa-9-azabicyclo[3.3.1]nonan-7-yl 1-(2,2-difluoroethyl)-5-fluoro-1H-indole-3-carboxylate 2,2,2-trifluoroacetic acid [Example 13]” stands 0.93 nM; under “(1R,5S,7S)-9-methyl-3-oxa-9-azabicyclo[3.3.1]nonan-7-yl 1-(2,2-difluoroethyl)-1H-pyrrolo[2,3-b]pyridine-3-carboxylate 2,2,2-trifluoroacetate [Example 14]”, 3.71 nM; under “(1R,5S,7S)-9-methyl-3-oxa-9-azabicyclo[3.3.1]nonan-7-yl 1-(5-fluoropyrazin-2-yl)-1H-indole-3-carboxylate, 2,2,2-trifluoroacetic acid salt [Example 33]”, 14.4 nM. Same read-out and setting: under “(1R,5S,7S)-9-methyl-3-oxa-9-azabicyclo[3.3.1]nonan-7-yl 1-(isothiazol-3-yl)-1H-indole-3-carboxylate, 2,2,2-trifluoroacetic acid salt [Example 34]” stands 0.74 nM. In the case of “(1R,5S,7s)-3-oxa-9- azabicyclo[3.3.1]nonan- 7-yl 1-(isothiazol-3-yl)- 1H-indole-3- carboxamide, 2,2,2- trifluoroacetic acid salt [Example 145]”, in experiment [2], the IC50 is 2.71 nM. Still for that read-out and setting: under “(1R,5S,7s)-3-oxa-9- azabicyclo[3.3.1]nonan- 7-yl 1-(isothiazol-5-yl)- 1H-indole-3- carboxamide, 2,2,2- trifluoroacetic acid salt [Example 155]” stands 1.26 nM. Regarding “(1R,5S,7s)-3-oxa-9-azabicyclo[3.3.1]nonan-7-yl 1-(2-cyanophenyl)-1H-indole-3-carboxylate, 2,2,2-trifluoroacetic acid salt [Example 28]”, the IC50 in experiment [2] turned out to be 1.08 nM.

“(1R,5S,7s)-3-oxa-9-azabicyclo[3.3.1]nonan-7-yl 1-(pyrazin-2-yl)-1H-indole-3-carboxylate, 2,2,2-trifluoroacetic acid salt [Example 27]”: the IC50 in experiment [2] came to 0.89 nM. On to “(1R,5S,7s)-9-methyl-3-oxa-9-azabicyclo[3.3.1]nonan-7-yl 1-(6-fluoropyridazin-3-yl)-1H-indole-3-carboxylate [Example 25]”, for which, in experiment [2], the IC50 stood at 3.88 nM. As to “(1R,5S,7s)-9-methyl-3-oxa-9-azabicyclo[3.3.1]nonan-7-yl 1-(6-hydroxypyridazin-3-yl)-1H-indole-3-carboxylate, 2,2,2-trifluoroacetic acid salt [Example 32]”, the half-maximal inhibitory concentration (IC50) in experiment [2] came to 1.38 nM.

As for “N-((1R,5S,7S)-3-oxa-9-azabicyclo[3.3.1]nonan-7-yl)-5-fluoro-1-(2,2,2-trifluoroethyl)-1H-indole-3-carboxamide 2,2,2-trifluoroacetate [Example 17]”, the IC50 in experiment [2] was determined as 4.39 nM. On the same count and under the same terms, under “N-((1R,5S,7S)-3-oxa-9-azabicyclo[3.3.1]nonan-7-yl)-5-fluoro-1-(2,2,2-trifluoroethyl)-1H-indole-3-carboxamide 2,2,2-trifluoroacetic acid [Example 16]” stands 3.25 nM; under “N-((1R,5S,7s)-9-methyl-3-oxa-9-azabicyclo[3.3.1]nonan-7-yl)-1-phenyl-1H-indole-3-carboxamide, 2,2,2-trifluoroacetic acid salt [Example 26]”, 0.54 nM.
